Test results reported in patent US20090239951A1, “Crystalline Material” (priority 2006, published 2009).

Key:
Type in all cases: physicochemical
[1] = Hygroscopicity versus relative humidity
[2] = Heat stability of crystalline form; details: solid crystalline form
[3] = Stability of Form N-5 slurries in ethanol:water mixtures; details: ethanol:water mixtures (1:1, 1:1.3 and 1:2) at 5, 25 and 30° C. after 1 h, 48 h and 5 days; confirmed by DSC and FTIR
Protocol: The stability of N-5 slurries in ethanol:water mixtures (1:1, 1:1.3 and 1:2) at 5, 25 and 30° C. was determined after 1 h, 48 h and 5 days. […] DSC and FTIR confirmed this.

[4] = Conversion of crystal form on being dissolved or slurried in solvents
[5] = Stability of the crystal form (general statement)

| SMILES | non-hygroscopic up to a relative humidity of [1] [%] | heat stable up to [2] | stability of slurries (transformation to other form) [3] | stability when slurried in the presence of an alcohol ([4]; slurried in the presence of an alcohol, after very long periods conversion into Form N-6 may occur) | becoming hygroscopic at a relative humidity of [1] [%] | stability of crystal form [5] | form conversion on being dissolved or slurried ([4]; common solvents: alcohols such as methanol, ethanol or isopropanol, nitromethane or nitroethane, alcohol/water mixtures) |
| --- | --- | --- | --- | --- | --- | --- | --- |
| CC(C)c1cc(Oc2c(Br)cc(NC(=O)CC(=O)O)cc2Br)ccc1O [Form N-5, 3-[[3,5-dibromo-4-[4-hydroxy-3-(1-methylethyl)-phenoxy]-phenyl]-amino]-3-oxopropanoic acid] | 95 | at least 170 °C | did not transform to any other form | stable for a number of days | – | – | – |
| CC(C)c1cc(Oc2c(Br)cc(NC(=O)CC(=O)O)cc2Br)ccc1O [Form N-1, 3-[[3,5-dibromo-4-[4-hydroxy-3-(1-methylethyl)-phenoxy]-phenyl]-amino]-3-oxopropanoic acid, reference compound] | – | around 125 °C | – | – | 50 | unstable | converts into Form N-5 and/or Form N-6 |
| CC(C)c1cc(Oc2c(Br)cc(NC(=O)CC(=O)O)cc2Br)ccc1O [Form N-6, 3-[[3,5-dibromo-4-[4-hydroxy-3-(1-methylethyl)-phenoxy]-phenyl]-amino]-3-oxopropanoic acid] | 95 | at least 170 °C | – | – | – | – | – |
